This note sets out measurements from patent US20190169218A1, “AMPHIPATHIC COMPOUND HAVING NOVEL PENTA-SACCHARIDE HYDROPHILIC GROUP AND USE THEREOF” (Industry-University Cooperation Foundation Hanyang …, priority 2016, published 2019).

Assay [1] has as its target T1, human β2 adrenergic receptor (β2AR) (Homo sapiens, UniProt P07550).
T1 construct: Flag; made in house
Put plainly: β2AR activity by [3H]-dihydroalprenolol radioactive ligand binding assay. Format: biochemical. To be noted: for long-term β2AR activity ([3H]-DHA binding): 3 or 5 days at room temperature. The procedure: The membrane protein stabilizing ability of receptors (mBBr-β2ARs) solubilized in PSAs or PSEs was evaluated by measuring the binding activity of the receptors to [^3H]-dihydroalprenolol ([^3H]-DHA).
Specifically, radioactive ligand binding assay was performed as follows. β2ARs purified with 0.1 wt % DDM was concentrated to about 10 mg/mL (approximately 200 μM). β2ARs purified with DDM were used to prepare a master binding mixture containing 10 nM [^3H]-dihydroalprenolol (DHA), which was dissolved in 0.2 wt % of DDM, PSA or PSE and supplemented with 0.5 mg/mL BSA. At a concentration of 0.2 pmol, the activity of the receptors purified with the amphipathic compounds was monitored at regular intervals over a 4-day incubation period. Protein samples were incubated on ice for 2 days and then at room temperature for 2 days. Receptor activity was measured by binding assay for dissolved radioactive ligands. The receptors purified with DDM or a novel formulation (PSA-C11, PSE-C11 or PSE-C13) were incubated with 10 nM [^3H]-DHA at room temperature for 30 minutes. The mixture was loaded onto a G-50 column, a solution passed through the column was collected in 1 mL of a binding buffer (100 mM NaCl and 20 mM HEPES (pH 7.5) supplemented with 0.5 mg/mL BSA and 20×CMC amphipathic compounds), and 15 mL of a scintillation fluid was added to the solution. Receptor-bound [^3H]-DHA was measured using a scintillation counter (Beckman). Non-specific binding of [^3H]-DHA was measured by adding 1 μM alprenolol (Sigma) to the same reaction mixture. The binding degree of the receptors to [^3H]-DHA was represented by a column graph.
The ability of TPSs (TPS-As, TPS-Es and TPS-ELs) to stabilize the structures of human β2 adrenergic receptors (β2ARs) and G protein-coupled receptors (GPCRs) was measured. That is, DDM-purified receptors were diluted with a buffer solution containing only each of the TPSs without cholesteryl hemisuccinate (CHS) or a buffer solution containing CHS and DDM. The final concentration of the compounds was CMC+0.2wt %, and the binding activity of the receptors to ligands was evaluated by measuring the degree of binding of the receptors to [^3H]-dihydroalprenolol ([^3H]-DHA).
Specifically, radioactive ligand binding assay was performed as follows. β2ARs were purified with 0.1 wt % DDM (D. M. Rosenbaum et al., Science, 2007, 318, 1266-1273.) and was concentrated to about 10 mg/mL (approximately 200 μM). β2ARs purified with DDM were used to prepare a master binding mixture containing 10 nM [^3H]-dihydroalprenolol (DHA), which was dissolved in 0.2% amphipathic compounds (DDM or TPSs) and supplemented with 0.5 mg/mL BSA. The activity of the receptors purified with the amphipathic compounds was monitored at regular intervals over a 3- to 5-day incubation period. The receptors purified with DDM or TPSs were incubated with 10 nM [^3H]-DHA at room temperature for 30 minutes. The mixture was loaded onto a G-50 column, a solution passed through the column was collected in 1 mL of a binding buffer (100 mM NaCl and 20 mM HEPES (pH 7.5) supplemented with 0.5 mg/mL BSA and 20×CMC of each amphipathic compound), and 15 mL of a scintillation fluid was added to the solution. Receptor-bound [^3H]-DHA was measured using a scintillation counter (Beckman). The binding degree of the receptors to [^3H]-DHA was represented by a column graph.

Assay [2] concerns the target T2, Salmonella typhimurium melibiose permease (MelB) (Salmonella typhimurium, UniProt P30878).
T2 construct: made in house; host or cells: DW2 cells (melB and lacZY), Salmonella typhimurium DW2; plasmid pK95AHB/WT MelBst/CH10
Put plainly: MelB extraction efficiency and thermal stability by SDS-PAGE and western immunoblotting. Conditions: 1.5 wt %; for solubilized MelB remaining in solution: 90 minutes; for MelB extraction efficiency: 0° C., 90 minutes (similar results at 45° C.). As to the method: The ability of PSAs or PSEs to extract (solubilize) MelBst (Salmonella typhimurium melibiose permease) proteins and stabilize the structures thereof was measured. MelB proteins were extracted using PSAs, PSEs or DDM, and the amount of the extracted proteins and structural stability thereof were quantitatively analyzed by SDS-PAGE and western immunoblotting. The protein extraction efficiency and thermally stabilizing ability of the amphipathic compounds were simultaneously evaluated by extracting MelB proteins at four temperatures (0, 45, 55 or 65° C.) for 90 minutes using the amphipathic compounds at a concentration of 1.5 wt %.
Specifically, according to the method described in the journal article (P. S. Chae, et al., Chemistry. 2013, 19, 15645-15651.) published by the present inventors, proteins (MelBst) were produced using a plasmid pK95AHB/WT MelBst/CH10 containing a gene construct encoding wild-type MelB having 10×His tags at the C-terminus and Salmonella typhimurium DW2 cells (melB and lacZY). According to the method described in the journal article (A. S. Ethayathulla et al., Nat. Commun. 2014, 5, 3009), cells were cultured and the cell membranes were obtained from the cultured cells. Protein analysis was performed using a Micro BCA kit (Thermo Scientific, Rockford, Ill.). To measure solubilization/stability, membrane samples (the final concentration of membrane proteins was 10 mg/mL) containing MelBst were mixed with a solubilization buffer solution (20 mM sodium phosphate, pH 7.5, 200 mM NaCl, 10% glycerol and 20 mM melibiose) containing DDM, PSAs (PSA-C11) or PSEs (PSE-C9, PSE-C11, PSE-C13) at a concentration of 1.5% (w/v). Extracts were incubated at four different temperatures (0, 45, 55 and 65° C.) for 90 minutes. Fractions were removed by ultracentrifugation at 355,590 g for 45 minutes using a Beckman Optima™ MAX ultracentrifuge equipped with a No. 4 TLA-100 rotor. 20 μg of proteins was separated using a 15% SDS-PAGE gel. Next, immunoblotting was performed using Penta-His-HRP antibodies (Qiagen, Germantown, Md.). After performing SDS-PAGE and immunoblotting, the amount of solubilized MelB was quantitated and expressed as a percentage of the amount of MelB measured in the control group.
For orientation: A western blot detects proteins with antibodies after separation by electrophoresis.

[3] abbreviates: first two days of incubation at 0° C.

T1 sequence (P07550 whole entry): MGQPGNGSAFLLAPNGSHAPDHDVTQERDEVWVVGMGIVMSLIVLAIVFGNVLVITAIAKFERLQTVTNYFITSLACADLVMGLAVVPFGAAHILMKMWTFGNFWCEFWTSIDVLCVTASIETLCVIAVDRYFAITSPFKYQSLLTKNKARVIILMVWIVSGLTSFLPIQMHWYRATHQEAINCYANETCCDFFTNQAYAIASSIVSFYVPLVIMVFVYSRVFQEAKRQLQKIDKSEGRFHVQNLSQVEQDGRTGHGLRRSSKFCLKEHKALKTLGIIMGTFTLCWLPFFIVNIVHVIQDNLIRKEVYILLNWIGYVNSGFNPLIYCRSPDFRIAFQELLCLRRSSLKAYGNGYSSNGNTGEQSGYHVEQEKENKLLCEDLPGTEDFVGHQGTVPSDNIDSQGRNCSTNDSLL
T2 sequence (P30878 whole entry): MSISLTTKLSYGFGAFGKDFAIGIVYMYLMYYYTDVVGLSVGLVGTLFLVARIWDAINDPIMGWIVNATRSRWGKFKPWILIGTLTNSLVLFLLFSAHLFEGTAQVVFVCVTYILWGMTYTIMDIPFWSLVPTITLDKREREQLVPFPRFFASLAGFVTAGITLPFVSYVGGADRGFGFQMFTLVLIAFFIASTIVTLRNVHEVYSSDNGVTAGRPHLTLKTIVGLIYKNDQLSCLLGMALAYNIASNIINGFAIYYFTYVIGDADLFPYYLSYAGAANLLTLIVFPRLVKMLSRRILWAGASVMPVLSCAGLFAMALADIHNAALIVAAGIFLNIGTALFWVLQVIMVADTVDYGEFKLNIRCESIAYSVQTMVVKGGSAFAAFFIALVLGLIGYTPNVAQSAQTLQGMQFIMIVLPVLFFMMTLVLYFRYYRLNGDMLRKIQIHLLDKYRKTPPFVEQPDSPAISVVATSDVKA

For `CCCCCCCCCCCCO[C@@H]1O[C@H](CO)[C@@H](O[C@H]2O[C@H](CO)[C@@H](O)[C@H](O)[C@H]2O)[C@H](O)[C@H]1O` [DDM, n-dodecyl-β-D-maltopyranoside, reference compound], in assay [1], the “long-term β2AR activity ([3H]-DHA binding)” value is reported as “the activity was rapidly lost over time”. For the same compound, the “β2AR activity ([3H]-DHA binding) during incubation” value in assay [1] (setting [3]) is reported as “well maintained the initial activity thereof”. Besides, the “solubilized MelB remaining in solution” value in assay [2] (55° C.) is “disappeared in the solution”.
With `CCCCCCCCCCCC(CCCCCCCCCCC)CO[C@@H]1OC(CO[C@@H]2OC(CO)[C@@H](O)C(O)C2O)[C@@H](O[C@@H]2OC(CO)[C@@H](O)C(O)C2O)C(O[C@@H]2OC(CO)[C@@H](O)C(O)C2O)C1O[C@@H]1OC(CO)[C@@H](O)C(O)C1O` (some centres unmarked) [PSA-C11], the “β2AR activity ([3H]-DHA binding) during incubation” value in assay [1] (setting [3]) is “well maintained the initial activity thereof”. Moreover, the MelB extraction efficiency result in assay [2] is “extracted at an efficiency similar to the efficiency observed in the case of DDM”. For the same compound, the “solubilized MelB remaining in solution” value in assay [2] (55° C.) is recorded as “remained dissolved in the solution”.
For `CCCCCCCCCCCOCC(COCCCCCCCCCCC)O[C@@H]1OC(CO[C@@H]2OC(CO)[C@@H](O)C(O)C2O)[C@@H](O[C@@H]2OC(CO)[C@@H](O)C(O)C2O)C(O[C@@H]2OC(CO)[C@@H](O)C(O)C2O)C1O[C@@H]1OC(CO)[C@@H](O)C(O)C1O` (some centres unmarked) [PSE-C11], in assay [1] (0.2 wt % DDM, PSA or PSE), the “initial β2AR activity ([3H]-DHA binding)” value is listed as “higher initial activity than proteins solubilized in DDM”. Further, the “β2AR activity ([3H]-DHA binding) during incubation” value in assay [1] (setting [3]) is “well maintained the initial activity thereof”; in assay [1] (incubation at room temperature (days 3-4)), “the best”. In addition, in assay [2], the MelB extraction efficiency result is “extracted at an efficiency similar to the efficiency observed in the case of DDM”. The “solubilized MelB remaining in solution” value in assay [2] (55° C.) is recorded as “remained dissolved in the solution”; in assay [2] (65° C.) it was “a small amount of dissolved MelB was observed”.
As for `CCCCCCCCCCCCCOCC(COCCCCCCCCCCCCC)O[C@@H]1OC(CO[C@@H]2OC(CO)[C@@H](O)C(O)C2O)[C@@H](O[C@@H]2OC(CO)[C@@H](O)C(O)C2O)C(O[C@@H]2OC(CO)[C@@H](O)C(O)C2O)C1O[C@@H]1OC(CO)[C@@H](O)C(O)C1O` (some centres unmarked) [PSE-C13], the “initial β2AR activity ([3H]-DHA binding)” value in assay [1] (0.2 wt % DDM, PSA or PSE) was “higher initial activity than proteins solubilized in DDM”. For the same compound, the “β2AR activity ([3H]-DHA binding) during incubation” value in assay [1] (setting [3]) was “well maintained the initial activity thereof”. The “solubilized MelB remaining in solution” value in assay [2] (55° C.) is recorded as “remained dissolved in the solution”.
As for `CCCCCCCCOCC(COCCCCCCCC)(COCCCCCCCC)CO[C@@H]1OC(CO[C@@H]2OC(CO)[C@@H](O)C(O)C2O)[C@@H](O[C@@H]2OC(CO)[C@@H](O)C(O)C2O)C(O[C@@H]2OC(CO)[C@@H](O)C(O)C2O)C1O[C@@H]1OC(CO)[C@@H](O)C(O)C1O` (some centres unmarked) [TPS-E8], in assay [1], the “long-term β2AR activity ([3H]-DHA binding)” value is given as “significantly better than that of DDM”. Also, the “initial β2AR activity ([3H]-DHA binding)” value in assay [1] (TPSs at CMC+0.2wt %, without CHS) was “the most excellent”.
